How the values were obtained:
[1] = physchem; settings: octan-1-ol/water, pH 7.4, LogD7.4
[2] = in vitro; settings: human, plasma, PPB

| Compound | logD [1] | fraction unbound at 5 h [2] |
| --- | --- | --- |
| NC(=O)c1cnc(N[C@H]2CCCNC2)c2cc(Br)sc12 | 1.08 | 0.179 |
| O=c1cc(-c2ccccc2)ccn1-c1ccc2c(cnn2CCN2CCCC2)c1 | 1.6 | 0.17 |
| COc1cc(OC)c2nc(C)c3c(c2c1)N(c1ccc(O)cc1)CC3 | 1.5 | 0.112 |
| O=c1cc(O)oc2c1c(=O)n(-c1ccccc1)c1ccccc21 | 0.96 | 0.0183 |
| CNC(=O)c1snnc1-c1ccccc1 | 1.23 | 0.563 |
| CC[C@H]1CN(Cc2cc(Cl)ccc2OCC(=O)O)CCN1S(=O)(=O)c1ccccc1 | 0.44 | 0.0069 |
| Cc1ccc(S(=O)(=O)N2N=Cc3oc(C)cc3B2O)cc1 | -0.28 | 0.051 |
| COc1ccc2ncc(=O)n(CCN3CCC(NCc4cc5c(cn4)OCCO5)CC3)c2n1 | 0.83 | 0.465 |
| COc1ccc2c(c1)N(CCN1CCC(NCc3ccc4c(n3)NC(=O)CO4)CC1)C(=O)CC2 | 0.66 | 0.0418 |
| COc1ccc2c(c1)N(CCN1CCC(NCc3ccc4c(n3)NC(=O)CO4)CC1)C(=O)OC2 | 0.5 | 0.258 |
| COc1ccc2ccc(=O)n(CCN3CCC(NCc4cc5c(cn4)OCCO5)CC3)c2c1 | 1.31 | 0.309 |
| COc1ncc2ccc(=O)n(CCN3CCC(NCc4cc5c(cn4)OCCO5)CC3)c2n1 | 0.2 | 0.276 |
| COc1ccc2ccc(=O)n(CCN3CCC(NCc4cc5c(cn4)OCCO5)CC3)c2n1 | 1.16 | 0.314 |
| Cc1c(Sc2ccc(Cl)cc2)c2cc(S(C)(=O)=O)ccc2n1CC(=O)O | 0.54 | 0.0127 |
| Cc1ccc(S(=O)(=O)Nc2c(C(=O)N[C@@H](C)C(C)(C)C)c(C)nn2C2CCN(C)CC2)cc1 | 0.8 | 0.454 |
| CN[C@@H](C)C(=O)N[C@H](C(=O)N[C@H]1CCCN(CCc2ccccc2)C1)C1CCCCC1 | 1.65 | 0.329 |
| CN[C@@H](C)C(=O)N[C@H](C(=O)N[C@H]1CCN(Cc2ccccc2)C1)C1CCCCC1 | 1.49 | 0.511 |
| CN[C@@H](C)C(=O)N[C@H](C(=O)N[C@H]1CCN(CCc2ccccc2)C1)C1CCCCC1 | 1.65 | 0.443 |
| CN[C@@H](C)C(=O)N[C@H](C(=O)N[C@H]1CCN(C(=O)c2ccccc2)C1)C1CCCCC1 | 0.82 | 0.661 |
| CN[C@@H](C)C(=O)N[C@H](C(=O)N[C@H]1CCN(C(=O)Cc2ccccc2)C1)C1CCCCC1 | 0.81 | 0.671 |
| CN[C@@H](C)C(=O)N[C@H](C(=O)N[C@H]1CCCN(C(=O)c2ccccc2)C1)C1CCCCC1 | 0.87 | 0.552 |

| Compound | logD [1] | fraction unbound at 5 h [2] |
| --- | --- | --- |
| CN[C@@H](C)C(=O)N[C@H](C(=O)N[C@H]1CCCN(C(=O)Cc2ccccc2)C1)C1CCCCC1 | 1.32 | 0.376 |
| CN[C@@H](C)C(=O)N[C@H](C(=O)N[C@H]1CCCN(CCc2ccccc2)C1)C(C)(C)C | 1.46 | 0.506 |
| CN[C@@H](C)C(=O)N[C@H](C(=O)N[C@H]1CCCN(CCc2ccccc2OC)C1)C(C)(C)C | 1.61 | 0.258 |
| CN[C@@H](C)C(=O)N[C@H](C(=O)N[C@H]1CCCN(CCc2ccc([N+](=O)[O-])cc2)C1)C(C)(C)C | 1.54 | 0.262 |
| COc1cc(OC)c(S(=O)(=O)N(C)c2ccccc2)cc1NC(C)=O | 1.1 | 0.179 |
| COc1cc(OC)c(S(=O)(=O)N(c2ccccc2)C(C)C)cc1NC(C)=O | 1.6 | 0.005 |
| COc1ccc([C@]2(O)CC[C@H](N3CC[C@@H](NC(=O)CNC(=O)c4cccc(C(F)(F)F)c4)C3)CC2)cn1 | 1.72 | 0.212 |
| Cn1ncc2c(=O)[nH]c(-c3ccccc3)nc21 | 1.61 | 0.0676 |
| COc1ccc(-c2nc3c(OCC4CCNCC4)c(Br)cnc3[nH]2)cc1 | 1.55 | 0.134 |
| O=C(c1cccc(Cc2n[nH]c(=O)c3ccccc23)c1)N1CCOCC1 | 1 | 0.415 |
| COc1cccc(/C=C2\SC(=O)NC2=O)c1N1CCC[C@@H](N)C1 | 1.27 | 0.0836 |
| CC(C)Cn1c(=O)n(C)c(=O)c2c(C(=O)N3CC[C@@H](O)C3)c(Cc3c[nH]c4ncccc34)sc21 | 1.71 | 0.314 |
| Cc1nc(Cl)c(Cl)n1Cc1sc2c(c1C(=O)N1CC[C@@H](O)C1)c(=O)n(C)c(=O)n2CC(C)C | 1.61 | 0.089 |
| CC(=O)Nc1ccc2ccn(-c3cc(NCCCN(C)C)n4ncc(C#N)c4n3)c2c1 | 1.62 | 0.101 |
| Cc1ccc2c(c1)c(-c1ccnc3c(S(C)(=O)=O)cccc13)c(C)n2CC(=O)O | -0.34 | 0.0606 |
| N#Cc1ccc2ccc(=O)n(CCN3CC[C@H](NCc4ccc5c(n4)NC(=O)CO5)[C@H](O)C3)c2c1 | 0.11 | 0.208 |
| COc1ccc2ncc(=O)n(CCN3CC[C@H](NCc4ccc5c(n4)NC(=O)CO5)[C@H](O)C3)c2c1 | 0.39 | 0.137 |
| COc1ccc2ncc(=O)n(CCN3CC[C@@H](NCc4ccc5c(n4)NC(=O)CO5)[C@@H](O)C3)c2c1 | 0.37 | 0.0532 |
| CO[C@H]1CN(CCn2c(=O)ccc3ccc(C#N)cc32)CC[C@H]1NCc1ccc2c(n1)NC(=O)CO2 | 0.32 | 0.535 |
| CO[C@H]1CN(CCn2c(=O)ccc3ccc(C#N)cc32)CC[C@@H]1NCc1cc2c(cn1)OCCO2 | 1.05 | 0.16 |
| CO[C@@H]1CN(CCn2c(=O)ccc3ccc(C#N)cc32)CC[C@H]1NCc1ccc2c(n1)NC(=O)CO2 | 0.81 | 0.276 |

| Compound | logD [1] | fraction unbound at 5 h [2] |
| --- | --- | --- |
| COc1ccc2ncc(=O)n(CCN3CC[C@H](NCc4cc5c(cn4)OCCO5)[C@@H](OC)C3)c2c1 | 1.25 | 0.166 |
| COc1ccc2ncc(=O)n(CCN3CC[C@@H](NCc4ccc5c(n4)NC(=O)CO5)[C@@H](F)C3)c2c1 | 0.83 | 0.244 |
| CC(C)(C)OC(=O)NCCCSC[C@H]1O[C@@H](n2cnc3c(N)ncnc32)[C@H](O)[C@@H]1O | 1.2 | 0.236 |
| NC(=O)c1cncc(-c2ccc([C@H]3CC[C@H](CC(=O)O)CC3)cc2)c1 | 0.22 | 0.0268 |
| CC[C@H](c1ccc(C(=O)O)c(Oc2cccc(Cl)c2)c1)N1CCC[C@H](n2cc(C)c(=O)[nH]c2=O)C1 | 0.22 | 0.0179 |
| CC[C@@H](c1ccc(C(=O)O)c(Oc2cccc(Cl)c2)c1)N1CCC[C@H](n2cc(C)c(=O)[nH]c2=O)C1 | 0.22 | 0.0383 |
| Cc1cn([C@H]2CCCN(Cc3ccc(C(=O)O)c(Oc4cccc(C(F)(F)F)c4)c3)C2)c(=O)[nH]c1=O | -0.38 | 0.0293 |
| CS(=O)(=O)c1ccc2c(C(=O)NC[C@@H](O)CN3CCC(Oc4ccc(C#N)c(Cl)c4)CC3)c[nH]c(=O)c2c1 | 1.41 | 0.319 |
| Cc1cn([C@H]2CCCN(S(=O)(=O)c3ccc(O)c(Oc4ccccc4)c3)C2)c(=O)[nH]c1=O | 1.49 | 0.062 |
| Cc1cn([C@H]2CCCN(S(=O)(=O)c3ccc(O)c(Oc4cccc(F)c4)c3)C2)c(=O)[nH]c1=O | 1.6 | 0.0457 |
| O=C(NO)C1COC(c2ccc(F)c(C(F)(F)F)c2)=N1 (configuration not stated) | 1.53 | 0.0836 |
| COc1ccc(-c2nc(N3CCOCC3)nc(O)c2C#N)cc1 | 0.2 | 0.0647 |
| COc1ccc(NC(=O)c2ccnc(N)n2)cc1 | 1.72 | 0.289 |
| Cc1nc(CSc2nc(N[C@H](C)CO)c3sc(=O)[nH]c3n2)cs1 | 1.73 | 0.0086 |
| CNc1nc2ccccc2n1Cc1sc2c(c1C(=O)N1CC[C@@H](O)C1)c(=O)n(C)c(=O)n2CC(C)C | 1.61 | 0.319 |
| NC(=O)Nc1sc(-c2ccc(CN3CCCCC3)cc2)cc1C(N)=O | 1.75 | 0.334 |
| c1ccc2c(c1)CCN(c1ccncc1)C2 | 1.4 | 0.431 |
| CN1CCN(C(=O)c2cccc(Cc3n[nH]c(=O)c4ccccc34)c2)CC1 | 0.92 | 0.349 |
| Cc1cc(Nc2nc(N[C@@H](C)c3ccc(F)cn3)cnc2C)[nH]n1 | 1.73 | 0.16 |

— ChEMBL document CHEMBL3301361, “Experimental in vitro DMPK and physicochemical data on a set of publicly disclosed compounds”
